From patent EP4800018A1, “PAN-KRAS INHIBITOR AND USE THEREOF IN MEDICINES” (Betta Pharmaceuticals Co., Ltd., priority 2023, dated 2025) come the findings set out here.

In series [1] the test system is KRAS-G12D mutant tumor cells AGS. In words: Cell Proliferation Inhibition Assay (AGS), Cell-titer GLO, 96 h. The settings on record: AGS cells, 96 h incubation, Cell-titer GLO, read-out: AGS(G12D). The series is classed as cell-based. An outline of the steps: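 Inhibition % was derived from CellTiter-Glo luminescence (max minus measured, over max minus blank) and fitted to give IC50. Cells were KRAS-G12D AGS in low-attachment wells, treated for 96 h at 37°C.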

A further series concerns the target T1, KRAS G12D-cRAF (Homo sapiens, UniProt P01116, G12D).
T1 construct: expressed in transfected cells
In words: Cellular KRAS G12D-cRAF Binding Inhibition Assay (NanoBRET, AD293 stable cells). The series is classed as cell-based. The settings on record: 3 h incubation, read-out: NanoBRET KRAS G12D. An outline of the steps:
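IC50 values derive from fitted % inhibition, normalised to maximum signal and medium-only blank. The read-out is NanoBRET between KRAS G12D-NanoLuc (donor) and cRAF RBD-HaloTag labelled with the 618 ligand (acceptor), in live stably transfected AD293 cells at 1×10^4/well.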

A short description of series [2]: PK Study of Compounds in Rats. In kind it is in vivo, Male SD rats. To be noted: mean; for F: PO 10 mg/kg vs IV 1 mg/kg (n=3); for Cmax: read-out: C0/Cmax; for Vd: read-out: Vss. As to the method: (§1) The test compound was mixed with the vehicle (10% DMSO/5% Solutol/85% physiological saline), vortexed and sonicated to prepare a clear 0.5 mg/mL intravenous injection solution. The test compound was mixed with the vehicle (20% PEG400/10% Solutol/70% pH 4.5 acetate buffer), vortexed and sonicated to prepare a clear 1 mg/mL oral solution. Male SD rats aged 6 to 7 weeks were selected and administered the test compound via intravenous (IV) and oral (PO) routes, respectively. Whole blood samples were collected at 5 min, 15 min, 30 min, 1 h, 2 h, 4 h, 7 h, and 24 h for the intravenous route, and at 15 min, 30 min, 1 h, 2 h, 4 h, 7 h, and 24 h for the oral route. Drug concentrations were analyzed by LC-MS/MS method, and pharmacokinetic parameters were calculated using Phoenix WinNonlin software (Pharsight, USA).

The test system of series [3] is KRAS-G12V mutant tumor cells SW620. In words: Cell Proliferation Inhibition Assay (SW620), Cell-titer GLO, 96 h. The series is classed as cell-based. To be noted: SW620 cells, 96 h incubation, Cell-titer GLO, read-out: SW620(G12V). Summed up:
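Readout: Cell-titer GLO luminescence after 96 h at 37°C, converted to percent inhibition against 0.5% DMSO and blank controls, with IC50 from curve fit. Low-attachment SW620 cultures (1×10^3 cells/well) were dosed at 10000–0.03 nM final.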

A further series concerns the target T2, KRAS G12V-cRAF (Homo sapiens, UniProt P01116, G12V).
T2 construct: expressed in transfected cells
In words: Cellular KRAS G12V-cRAF Binding Inhibition Assay (NanoBRET, AD293 stable cells). The settings on record: 3 h incubation, read-out: NanoBRET KRAS G12V. The series is classed as cell-based. An outline of the steps: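 Binding measured as BRET between NanoLuc and HaloTag-bound NanoBRET 618 ligand (added overnight) in stably expressing AD293 cells. Signals were converted to percent inhibition against max and blank wells and fitted for IC50.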

Series [4] in a line: PK Study of Compounds in Mice. The series is classed as in vivo, Female ICR mice. The settings on record: mean; for Cmax: read-out: C0/Cmax. As to the method: as §1, with “0.2” for “0.5”, “Female ICR mice” for “Male SD rats”
[5] abbreviates: male, SD, rat, whole blood, IV 1 mg/kg (n=3).
Where [6] appears, read: male, SD, rat, whole blood, IV 1 mg/kg (n=3), read-out: AUC0-t.
The mark [7] stands for this setting: male, SD, rat, whole blood, PO 10 mg/kg (n=3).
The mark [8] stands for this setting: male, SD, rat, whole blood, PO 10 mg/kg (n=3), read-out: AUC0-t.
The mark [9] stands for this setting: male, SD, rat, whole blood, PO 10 mg/kg (n=3), read-out: Tmax.
The mark [10] stands for this setting: female, ICR, mouse, whole blood, IV 1 mg/kg (n=3).
Setting [11] is: female, ICR, mouse, whole blood, PO 10 mg/kg (n=3).

pIC50: −log10 of the molar value. Where two headings read alike, the source gives them in different places.

Regarding `CC1OCCCn2c(c3c4cc(ccc42)-c2csc(n2)CC(NC(=O)C2C4COCC42)C(=O)N2NC(C(=O)OCC(C)(C)C3)C3CC2C3)-c2cc(N3CCN(C)CC3)cnc21` [Example 192, (1R,5S,6r)-N-((1^5S,6^4S,4S,Z)-1^5,10,10-trimethyl-1^2-(4-methylpiperazin-1-yl)-5,7-dioxo-1^8,1^9-dihydro-1^5H,1^7H-8-oxa-6^2,6^3-diaza-1(13,15)-pyrido[3',2':7,8][1,5]oxazonino[5,6-a]indola-2(4,2)-thiazola-6(2,4)-bicyclo[3.1.1]heptanacycloundecaphane-4-yl)-3-oxabicyclo[3.1.0]hexane-6-carboxamide], the pIC50 in series [1] (Homo sapiens, AGS, 96 h) was 8.82; on KRAS G12D-cRAF, 8.37; in series [3] (Homo sapiens, SW-620, 96 h), 9.05; on KRAS G12V-cRAF it was 7.79. This compound gave a F in series [2] of 11.9. This compound gave a clearance in series [2] (setting [5]) of 0.215 L/h/kg. Further, the half-life in series [2] (setting [5]) is 4.93 h; in series [2] (setting [7]), 5.13 h. For the same compound, the values for the AUC(0-t) in series [2] (setting [6]) and in series [2] (setting [8]) were 4.5 µg·h/mL and 5.35 µg·h/mL, respectively. The values for the Cmax in series [2] (setting [5]) and in series [2] (setting [7]) were 4.22 µg/mL and 0.472 µg/mL, respectively. Also, the Vd in series [2] (setting [5]) is 1.11 L/kg. Further, the Tmax in series [2] (setting [9]) stood at 3.33 h.

On to `CCN1CCN(c2cnc3c(c2)-c2c4c5cc(ccc5n2CCCOC3C)-c2coc(n2)CC(NC(=O)C2C(C)C2C)C(=O)N2NC(C(=O)OCC(C)(C)C4)C3CC2C3)CC1` [Example 197, (1r,2R,3S)-N-((1^5S,6^4S,4S,Z)-1^2-(4-ethylpiperazin-1-yl)-1^5,10,10-trimethyl-5,7-dioxo-1^8,1^9-dihydro-1^5H,1^7H-8-oxa-6^2,6^3-diaza-1(13,15)-pyrido[3',2':7,8][1,5]oxazonino[5,6-a]indola-2(4,2)-oxazola-6(2,4)-bicyclo[3.1.1]heptanacycloundecaphane-4-yl)-2,3-dimethylcyclopropane-1-carboxamide], for which the pIC50 was 10.52 in series [1] (Homo sapiens, AGS, 96 h); 9.52 at KRAS G12D-cRAF; 11.00 in series [3] (Homo sapiens, SW-620, 96 h); 8.70 at KRAS G12V-cRAF.

As for `CC1OCCCn2c(c3c4cc(ccc42)-c2csc(n2)CC(NC(=O)C2C(C)C2C)C(=O)N2NC(C(=O)OCC(C)(C)C3)C3CC2C3)-c2cc(N3CCN(C4COC4)CC3)cnc21` [Example 198, (1r,2R,3S)-N-((1^5S,6^4S,4S,Z)-1^2-(4-(oxetan-3-yl)piperazin-1-yl)-1^5,10,10-trimethyl-5,7-dioxo-1^8 ,1^9-dihydro-1^5H,1^7H-8-oxa-6^2,6^3-diaza-1(13,15)-pyrido[3',2':7,8][1,5]oxazonino[5,6-a]indola-2(4 ,2)-thiazola-6(2,4)-bicyclo[3.1.1]heptanacycloundecaphane-4-yl)-2,3-dimethylcyclopropane-1-ca rboxamide], the pIC50 was 9.43 in series [1] (Homo sapiens, AGS, 96 h); 8.70 on KRAS G12D-cRAF; 10.05 in series [3] (Homo sapiens, SW-620, 96 h); 8.08 at KRAS G12V-cRAF. Further, the results for the F in series [2] and in series [4] (PO 10 mg/kg vs IV 1 mg/kg (n=3)) were 32.4 and 54.0, respectively. Also, the clearance in series [2] (setting [5]) turned out to be 0.133 L/h/kg; in series [4] (setting [10]) it was 0.345 L/h/kg. Also, the half-life in series [2] (setting [5]) was 7.22 h; in series [4] (setting [10]), 8.9 h. In addition, the AUC(0-t) in series [2] (setting [6]) stood at 6.94 µg·h/mL; in series [2] (setting [8]), 22.5 µg·h/mL; in series [4] (setting [10]), 2.45 µg·h/mL; in series [4] (setting [11]) it was 13.2 µg·h/mL. The Cmax in series [2] (setting [5]) came out at 6.06 µg/mL; in series [2] (setting [7]) it was 2.06 µg/mL; in series [4] (setting [10]), 0.462 µg/mL; in series [4] (setting [11]), 1.3 µg/mL. The Vd was 1.08 L/kg in series [2] (setting [5]) and 4.66 L/kg in series [4] (female, ICR, mouse, whole blood, IV 1 mg/kg (n=3), read-out: Vss). The time of peak concentration (Tmax) in series [2] (setting [9]) is 3.33 h; in series [4] (setting [11]), 2 h.

Take “(1S,2S)-2-(difluoromethyl)-N-((1^5S,6^3S,4S,Z)-1^5,10,10-trimethyl-1^2-(6-methyl-3,6-diazabicyclo[ 3.1.1]heptan-3-yl)-5,7-dioxo-1^8,1^9,6^1,6^2,6^3,6^4,6^5,6^6-octahydro-1^5H,1^7H-8-oxa-1(13,15)-pyrido[3', 2':7,8][1,5]oxazonino[5,6-a]indola-2(4,2)-thiazola-6(1,3)-pyridazinacycloundecaphane-4-yl)cycl opropane-1-carboxamide [Example 150]”: the pIC50 in series [1] is 9.03; at KRAS G12D-cRAF, 8.79; in series [3], 9.80; on KRAS G12V-cRAF it was 8.09.

For the compound “(1S,2S)-2-(difluoromethyl)-N-((1^5S,6^4S,4S,Z)-1^5,10,10-trimethyl-1^2-(4-methylpiperazin-1-yl)-5, 7-dioxo-1^8,1^9-dihydro-1^5H,1^7H-8-oxa-6^2,6^3-diaza-1(13,15)-pyrido[3',2':7,8][1,5]oxazonino[5,6-a ]indola-2(4,2)-thiazola-6(2,4)-bicyclo[3.1.1]heptanacycloundecaphane-4-yl)cyclopropane-1-carb oxamide [Example 184]”, in series [1], the pIC50 was 9.05. In series [2] (IV 1 mg/kg (n=3)), this compound came in with an AUC(0-t) of 5.558 µg·h/mL, a CL of 0.154 L/h/kg, a T1/2 of 9.07 h and a Vss of 1.71 L/kg. Besides, in series [2] (PO 10 mg/kg (n=3)), the AUC(0-t) was determined as 10.91 µg·h/mL and the Tmax came out at 3.33 h. This compound came in with a F in series [2] of 19.6. Also, the pIC50 in series [3] was 9.19.
